Drawing on US4570005A, “Process for the preparation of 2-arylpropyl ether or thioether derivatives” (priority 1980, dated 1986), this text covers mortality and LD50 for 24 compounds.

Data set [1] deals with sensitive green rice leafhopper (collected at Chigasaki). The experiment in a line: whole plant or invertebrate. Particulars: Nephotettix cincticeps, read-out: Mortality (%), Green Rice Leafhopper Collected at Chigasaki. The format is in vivo. As to the method: (§1) To a mixture of 20 parts of the compound of the present invention and 20 parts of Sorpol SM-200 (registered tradename for the product supplied by Toho Chemical Industrial Co., Ltd.) was added 60 parts of xylol, and the mixture was suffciently blended. The obtained emulsifiable concentrate was diluted at a predetermined concentration with distilled water, and the obtained dilution was used.
(§2) Seedlings (having 2 to 3 leaves) of paddy rice were hydroponically cultured in a pot having a diameter of 5 cm. A chemical dilution having a concentration of 100 or 20 ppm, prepared in the same manner as described in Test 1, was applied with a sprayer at a rate of 3 ml per pot. The treated seedlings were air-dried and covered with a metal net cylinder, and female adults of resistant green rice leafhopper (collected at Nakagawara) and sensitive green rice leafhopper (collected at Chigasaki) were set, respectively, free in the pot at a density of 10 adults per pot. After 24 hours, the numbers of killed and living adults were counted and the mortality was calculated. The test was made on three pots and the average value was calculated.

Data set [2] is described as follows: Test 9: Toxicity Test (acute oral toxicity, mice). Particulars: mouse, in vivo, po. As to the method: A predetermined amount of a solution or suspension of a test compound in corn oil was orally administered to male mice having a body weight of 19 to 23 g (0.2 ml per 10 g of the body weight). After 7 days, the number of killed mice was counted and the influences on the mice were examined.

The test system of data set [3] is resistant green rice leafhopper (collected at Nakagawara). Description: Test 3: Effect on Resistant Green Rice Leafhopper (collected at Nakagawara). It is filed as in vivo, Nephotettix cincticeps Uhler (Green rice leafhopper). Particulars: Nephotettix cincticeps, 24 h, read-out: Mortality (%), Green Rice Leafhopper Collected at Nakagawara. As to the method: as §1, §2

Setting [4] is: sensitive female adults, 24 hours.
Setting [5] is: 100 ppm, sensitive female adults, 24 hours.

Where two headings read alike, the source gives them in different places.

Consider `CNC(=O)Oc1cccc(C)c1` [Comparative Compound (e), m-tolyl-N-methylcarbamate, reference compound], for which the mortality (usually the share of the test organisms that died) at 100 ppm in data set [1] (24 h) was 80%. Further, the LD50 (as a rule, the dose at which mortality reaches 50%) at 168 h in data set [2] was 220 mg/kg.
On to `CC(C)(COCc1cccc(Oc2cccc(Cl)c2)c1)c1ccc(Cl)cc1` [Compound 10, 3-(3-Chlorophenoxy)benzyl 2-(4-chlorophenyl)-2-methylpropyl ether], for which the mortality at 20 ppm in data set [1] (setting [4]) and in data set [3] was 100% each time. Further, the mortality at 100 ppm in data set [1] (setting [5]) and in data set [3] was 100% in each case. This compound also registered an LD50 at 168 h in data set [2] of more than 500 mg/kg.
`Cc1cccc(Oc2cccc(COCC(C)(C)c3ccc(Cl)cc3)c2)c1` [Compound 26, 3-(3-Methylphenoxy)benzyl 2-(4-chlorophenyl)-2-methylpropyl ether]: the figures for the mortality at 20 ppm in data set [1] (setting [4]) and in data set [3] were 60% and 85%, respectively. For the same compound, the mortality at 100 ppm in data set [1] (setting [5]) and in data set [3] was 100% throughout. This compound also registered an LD50 at 168 h in data set [2] of more than 500 mg/kg.
As to `COc1ccc(Oc2cccc(COCC(C)(C)c3ccc(OC)cc3)c2)cc1` [Compound 27, 3-(4-Methoxyphenoxy)benzyl 2-(4-methoxyphenyl)-2-methylpropyl ether], the mortality at 20 ppm in data set [1] (setting [4]) stood at 50%; in data set [3] it was 70%. Moreover, the mortality at 100 ppm in data set [1] (setting [5]) and in data set [3] was 100% throughout. In addition, in data set [2], the LD50 at 168 h is more than 500 mg/kg.
As for `CC(C)(COCc1cccc(Oc2ccc(F)cc2)c1)c1ccccc1` [Compound 28, 3-(4-Fluorophenoxy)benzyl 2-phenyl-2-methylpropyl ether], the figures for the mortality at 20 ppm in data set [1] (setting [4]) and in data set [3] were 75% and 90%, respectively. In addition, the mortality at 100 ppm in data set [1] (setting [5]) and in data set [3] was 100% throughout. The compound also displayed an LD50 at 168 h in data set [2] of more than 500 mg/kg.
Consider `COc1ccc(C(C)(C)COCc2cccc(Oc3ccc(F)cc3)c2)cc1` [Compound 32, 3-(4-Fluorophenoxy)benzyl 2-(4-methoxyphenyl)-2-methylpropyl ether], for which the mortality at 20 ppm in data set [1] (setting [4]) and in data set [3] was 100% throughout. Also, the mortality at 100 ppm in data set [1] (setting [5]) and in data set [3] was 100% in each case. In data set [2], this compound showed an LD50 at 168 h of more than 500 mg/kg.
`COc1ccc(Oc2cccc(COCC(C)(C)c3ccc(Cl)cc3)c2)cc1` [Compound 34, 3-(4-Methoxyphenoxy)benzyl 2-(4-chlorophenyl)-2-methylpropyl ether]: the results for the mortality at 20 ppm in data set [1] (setting [4]) and in data set [3] were 90% and 100%, respectively. Further, the mortality at 100 ppm in data set [1] (setting [5]) and in data set [3] was 100% in each case. The compound also registered an LD50 at 168 h in data set [2] of more than 500 mg/kg.
Take `Cc1cccc(C(C)(C)COCc2cccc(Oc3ccc(F)cc3)c2)c1` [Compound 36, 3-(4-Fluorophenoxy)benzyl 2-(3-methylphenyl)-2-methylpropyl ether]: the mortality at 20 ppm was 70% in data set [1] (setting [4]) and 90% in data set [3]. For the same compound, the mortality at 100 ppm in data set [1] (setting [5]) turned out to be 95%; in data set [3], 100%. The LD50 at 168 h in data set [2] was more than 500 mg/kg.
For the compound `COc1ccc(Oc2cccc(COCC(C)(C)c3ccc(Br)cc3)c2)cc1` [Compound 40, 3-(4-Methoxyphenoxy)benzyl 2-(4-bromophenyl)-2-methylpropyl ether], the mortality at 20 ppm came to 50% in data set [1] (setting [4]) and 70% in data set [3]. Besides, the mortality at 100 ppm in data set [1] (setting [5]) and in data set [3] was 100% throughout. The compound also had an LD50 at 168 h in data set [2] of more than 500 mg/kg.
In the case of `CC(C)(COCc1cccc(Oc2ccc(Br)cc2)c1)c1cccc(C(F)(F)F)c1` [Compound 42, 3-(4-Bromophenoxy)benzyl 2-(3-trifluoromethylphenyl)-2-methylpropyl ether], the mortality at 20 ppm was 95% in data set [1] (setting [4]) and 100% in data set [3]. The mortality at 100 ppm in data set [1] (setting [5]) and in data set [3] was 100% in each case. For the same compound, the LD50 at 168 h in data set [2] is more than 500 mg/kg.
Consider `COc1ccc(Oc2cccc(COCC(C)(C)c3ccc(C)cc3)c2)cc1` [Compound 44, 3-(4-methoxyphenoxy)benzyl 2-(4-methylphenyl)-2-methylpropylether], for which the values for the mortality at 20 ppm in data set [1] (setting [4]) and in data set [3] were 80% and 95%, respectively. Besides, the mortality at 100 ppm in data set [1] (setting [5]) and in data set [3] was 100% throughout. The LD50 at 168 h in data set [2] was more than 500 mg/kg.
Consider `CC(C)c1ccc(C(C)(C)COCc2cccc(Oc3ccccc3)c2)cc1` [Compound 63, 3-Phenoxybenzyl 2-(4-isopropylphenyl)-2-methylpropyl ether], for which the results for the mortality at 20 ppm in data set [1] (setting [4]) and in data set [3] were 95% and 100%, respectively. In addition, the mortality at 100 ppm in data set [1] (setting [5]) and in data set [3] was 100% in each case. In data set [2], this compound came in with a 50% lethal dose (LD50) at 168 h of more than 500 mg/kg.
For the compound `CC(C)(COCc1cccc(Oc2ccccc2)c1)c1ccc(-c2ccccc2)cc1` [Compound 68, 3-Phenoxybenzyl 2-(4-biphenyl)-2-methylpropyl ether], the mortality at 20 ppm in data set [1] (setting [4]) and in data set [3] was 100% each time. Moreover, the mortality at 100 ppm in data set [1] (setting [5]) and in data set [3] was 100% in each case. This compound displayed an LD50 at 168 h in data set [2] of more than 500 mg/kg.
Take `CC(C)(COCc1cccc(Oc2ccccc2)c1)c1ccc(OC2CCCCC2)cc1` [Compound 72, 3-Phenoxybenzyl 2-(4-cyclohexyloxyphenyl)-2-methylpropyl ether]: the mortality at 20 ppm in data set [1] (setting [4]) amounted to 65%; in data set [3], 80%. Besides, the mortality at 100 ppm in data set [1] (setting [5]) and in data set [3] was 100% throughout. This compound returned a median lethal dose (LD50) at 168 h in data set [2] of more than 500 mg/kg.
For the compound `CC(C)c1ccc(C(C)(C)COCc2cccc(Oc3ccc(F)cc3)c2)cc1` [Compound 77, 3-(4-Fluorophenoxy)benzyl 2-(4-isopropylphenyl)-2-methylpropyl ether], the figures for the mortality at 20 ppm in data set [1] (setting [4]) and in data set [3] were 70% and 85%, respectively. In addition, the mortality at 100 ppm in data set [1] (setting [5]) and in data set [3] was 100% each time. The same compound yielded an LD50 at 168 h in data set [2] of more than 500 mg/kg.
On to `COCc1ccc(C(C)(C)COCc2cccc(Oc3ccccc3)c2)cc1` [Compound 80, 3-Phenoxybenzyl 2-(4-methoxymethylphenyl)-2-methylpropyl ether], for which the LD50 at 168 h in data set [2] is more than 500 mg/kg.
For `C=C(C)c1ccc(C(C)(C)COCc2cccc(Oc3ccccc3)c2)cc1` [Compound 87, 3-Phenoxybenzyl 2-(4-isopropenylphenyl)-2-methylpropyl ether], the LD50 at 168 h in data set [2] was more than 500 mg/kg.
As for `COc1ccc(C(C)(C)COCc2cccc(Oc3ccccc3)c2)cc1OC` [Compound 88, 3-Phenoxybenzyl 2-(3,4-dimethoxyphenyl)-2-methylpropyl ether], the figures for the mortality at 20 ppm in data set [1] (setting [4]) and in data set [3] were 60% and 80%, respectively. For the same compound, the mortality at 100 ppm in data set [1] (setting [5]) and in data set [3] was 100% in each case. This compound registered an LD50 at 168 h in data set [2] of more than 500 mg/kg.
`CCOCCOc1ccc(C(C)(C)COCc2cccc(Oc3ccccc3)c2)cc1` [Compound 89, 3-Phenoxybenzyl 2-[4-(2-ethoxyethoxy)phenyl]-2-methylpropyl ether] showed an LD50 at 168 h in data set [2] of more than 500 mg/kg.
Take `CC(C)=Cc1ccc(C(C)(C)COCc2cccc(Oc3ccccc3)c2)cc1` [Compound 91, 3-Phenoxybenzyl 2-[4-(2-methyl-1-propenyl)phenyl]-2-methylpropyl ether]: the mortality at 20 ppm in data set [1] (setting [4]) and in data set [3] was 100% throughout. Moreover, the mortality at 100 ppm in data set [1] (setting [5]) and in data set [3] was 100% throughout. This compound also displayed an LD50 at 168 h in data set [2] of more than 500 mg/kg.
In data set [2], `C=C(Cl)c1ccc(C(C)(C)COCc2cccc(Oc3ccccc3)c2)cc1` [Compound 102, 3-Phenoxybenzyl 2-[4-(1-chlorovinyl)phenyl]-2-methylpropyl ether] had an LD50 at 168 h of more than 500 mg/kg.
Take `CC(C)(COCc1cccc(Oc2ccccc2)c1)c1ccc(C(=O)OCC(F)(F)F)cc1` [Compound 106, 3-Phenoxybenzyl 2-[4-(2,2,2-trifluoroethoxycarbonyl)-phenyl]-2-methylpropylether]: in data set [2], the LD50 at 168 h is more than 500 mg/kg.
Compound `C=C(CC)c1ccc(C(C)(C)COCc2cccc(Oc3ccccc3)c2)cc1` [Compound 110, 3-Phenoxybenzyl 2-[4-(1-buten-2-yl)phenyl]-2-methylpropyl ether] gave an LD50 at 168 h in data set [2] of more than 500 mg/kg.
Compound `CC=C(C)c1ccc(C(C)(C)COCc2cccc(Oc3ccccc3)c2)cc1` [Compound 111, 3-Phenoxybenzyl 2-[4-(2-buten-2-yl)phenyl]-2-methylpropyl ether] gave an LD50 at 168 h in data set [2] of more than 500 mg/kg.
